Assay results reported in ChEMBL document CHEMBL4699544, “Design and synthesis of Coenzyme A analogues as Aurora kinase A inhibitors: An exploration of the roles of the pyrophosphate and pantetheine moieties” (Bioorg Med Chem, 2020).

These compounds were tested against T1, Aurora kinase A (Homo sapiens, UniProt O14965) (assay: Inhibition of recombinant Aurora A (unknown origin) using myelin basic protein as substrate incubated for 30 mins in presence of DTT by [gamma-33P]-ATP based radioactive filter binding assay).
T1 sequence (O14965 whole entry): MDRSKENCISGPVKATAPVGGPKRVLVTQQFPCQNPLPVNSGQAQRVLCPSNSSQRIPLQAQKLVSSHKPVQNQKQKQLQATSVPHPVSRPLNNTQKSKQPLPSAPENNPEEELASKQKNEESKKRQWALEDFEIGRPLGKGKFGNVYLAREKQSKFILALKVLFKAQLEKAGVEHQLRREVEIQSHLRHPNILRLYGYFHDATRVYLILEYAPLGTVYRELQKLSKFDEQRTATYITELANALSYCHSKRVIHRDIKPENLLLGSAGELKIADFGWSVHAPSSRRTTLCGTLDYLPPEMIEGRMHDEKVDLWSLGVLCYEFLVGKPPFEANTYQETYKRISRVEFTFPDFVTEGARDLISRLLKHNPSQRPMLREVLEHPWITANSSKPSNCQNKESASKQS

IC50	SMILES
117 µM	CC(C)(COC(=O)CCC(=O)OC[C@@H]1O[C@H](n2cnc3c(N)ncnc32)[C@@H](O)[C@H]1O)[C@@H](O)C(=O)NCCC(=O)NCCS

Each compound was assayed against T1, Aurora kinase A (assay: Inhibition of recombinant Aurora A (unknown origin) using myelin basic protein as substrate incubated for 30 mins in presence of DTT by [gamma-33P]-ATP based radioactive filter binding assay).

IC50	SMILES
117 µM	CC(C)(COC(=O)CCC(=O)OC[C@@H]1O[C@H](n2cnc3c(N)ncnc32)[C@@H](O)[C@H]1O)[C@@H](O)C(=O)NCCC(=O)NCCS

The compounds below were run against T1, Aurora kinase A (assay: Inhibition of recombinant Aurora A (unknown origin) using myelin basic protein as substrate incubated for 30 mins in presence or absence of DTT by [gamma-33P]-ATP based radioactive filter binding assay).

SMILES	IC50
CC(C)(COC(=O)CCC(=O)OC[C@@H]1O[C@H](n2cnc3c(N)ncnc32)[C@@H](O)[C@H]1O)[C@@H](O)C(=O)NCCC(=O)NCCS	83 µM
CNC(=O)CCNC(=O)[C@H](O)C(C)(C)COC(=O)CCC(=O)OC[C@@H]1O[C@H](n2cnc3c(N)ncnc32)[C@@H](O)[C@H]1O	1400 µM
CNC(=O)[C@H](O)C(C)(C)COC(=O)CCC(=O)OC[C@@H]1O[C@H](n2cnc3c(N)ncnc32)[C@@H](O)[C@H]1O	1300 µM
CCCNC(=O)CCNC(=O)[C@H](O)C(C)(C)COC(=O)CC(=O)NC[C@@H]1O[C@H](n2cnc3c(N)ncnc32)[C@@H](O)[C@H]1O	1100 µM
CCNC(=O)CCNC(=O)[C@@H](O)C(C)(C)COP(=O)(O)OP(=O)(O)OC[C@@H]1O[C@H](n2cnc3c(N)ncnc32)[C@@H](O)[C@H]1OP(=O)(O)O	160 µM
Nc1ncnc2c1ncn2[C@H]1O[C@@H](CNC(=O)CC(=O)O)[C@H](O)[C@@H]1O	910 µM

Continued by falling IC50, values first:

IC50	SMILES
1300 µM	CCCNC(=O)CCNC(=O)[C@H](O)C(C)(C)COC(=O)CC(=O)OC[C@@H]1O[C@H](n2cnc3c(N)ncnc32)[C@@H](O)[C@H]1O
542 µM	CCCNC(=O)CCNC(=O)[C@H](O)C(C)(C)COC(=O)CCCC(=O)OC[C@@H]1O[C@H](n2cnc3c(N)ncnc32)[C@@H](O)[C@H]1O
497 µM	CCCNC(=O)CCNC(=O)[C@H](O)C(C)(C)COC(=O)CCC(=O)OC[C@@H]1O[C@H](n2cnc3c(N)ncnc32)[C@@H](O)[C@H]1O
430 µM	CC(C)(C)COC(=O)CCC(=O)OC[C@@H]1O[C@H](n2cnc3c(N)ncnc32)[C@@H](O)[C@H]1O
420 µM	Nc1ncnc2c1ncn2[C@H]1O[C@@H](COC(=O)CC(=O)O)[C@H](O)[C@@H]1O
17 µM	CC(C)(COP(=O)(O)OP(=O)(O)OC[C@@H]1O[C@H](n2cnc3c(N)ncnc32)[C@@H](O)[C@H]1O)[C@H](O)C(=O)NCCC(=O)NCCS
5 µM	CC(C)(COP(=O)(O)OP(=O)(O)OC[C@@H]1O[C@H](n2cnc3c(N)ncnc32)[C@@H](O)[C@H]1OP(=O)(O)O)[C@H](O)C(=O)NCCC(=O)NCCS
